Where two headings read alike, the source gives them in different places.
What was measured:
5-HT (serotonin) uptake = format: biochemical, rat (Sprague Dawley)
Protocol: (§1) One male rat (Sprague Dawley) weighing approx. 200-250 g was sacrificed by cervical dislocation. The brain was dissected out and the cerebellum discarded. The brain was then weighed and 10 ml ice cold sucrose (0.32M) added per gram tissue. […] The pellet was discarded and the supernatant retained (crude synaptosomal preparation).
(§2) All tubes were set up in triplicate. […] 100 μl of the prepared synaptosomal preparation was added to each tube and incubated for 5 minutes in a shaking water bath at 37° C. Any reaction was stopped by plunging the tubes into an ice water bath. ^3 H NA (10^-7 M) or ^3 H 5-HT ([…]) was added to each tube and incubated for 5 minutes in a shaking water bath at 37° C. Any reaction was stopped by plunging the tubes into an ice-water bath. Accumulated monoamines were collected using a Brandell Cell Harvester under mild vacuum. Filters were rinsed (2×) using 4 ml of ice-cold 0.9% saline. Scintillation fluid was added (4 ml/tube). Radioactivity was measured on a scintillation counter.
(§3) Non-specific values were subtracted from total values. The control was taken as 100%. Drug effects were calculated as a percentage of control inhibitor value. A graph of log of drug concentration versus % control was plotted and IC50 values were calculated by interpolation.

[1] = biological target: T1, Acetylcholinesterase (AChE) (Rattus norvegicus, UniProt P37136); assay: biochemical; format: biochemical, Male Rats (Sprague Dawley), brain
T1 construct: The brain was removed and homogenised; from tissue; host or cells: rat brain (male Sprague Dawley), Triton X100 detergent supernatant of the EDTA-buffer pellet
Protocol: (i) Enzyme Source for AChE
5 Male Rats (Sprague Dawley) weighing approx 250 g were killed by CO2 overdose and cervical dislocation.
The brain was removed and homogenised (9 strokes at 840 rpm with 4 volumes of phosphate buffer pH 7.4+10 mM (EDTA) and centrifuged at 27,000 g for 30 minutes.
The supernatant was discarded and the pellet resuspended in phosphate buffer with 10 mM EDTA+1- Triton X100 (2 ml/g wet weight). The crude homogenate was centrifuged at 27,000 g for 30-40 minutes.
The pellet was discarded and the supernatant was dispensed into 0.5 ml aliquots and stored at -20° C. until required.
Phosphate Buffer (0.1M. pH 7.4)
Made up to 500 ml with distilled H2 O, pH 7.4.
0.5 ml aliquots of brain (enzyme solution) as prepared above were thawed out. 2 ml of phosphate buffer was added to each aliquot. 2 ml of the enzyme solution was incubated with 2 ml PDS for 60 minutes at 0° C. The composition of blank, control and test solutions are given below:
0.9 ml phosphate buffer (0.1 M, pH 7.4)
0.85 ml phosphate buffer (0.1M, pH 7.4)
0.05 ml acetylthiocholine (5.2 mM)
(§4) 0.8 ml phosphate buffer (0.1M, pH 7.4)
0.05 ml Acetylthiocholine 5.2 mM
Change in absorbance was measured at 30 second intervals for 3 minutes at […]. The control was taken as 100%. Inhibitor was calculated as a percentage of the control. A graph of Log of inhibitor conc. versus % control was plotted and IC5. values calculated by interpolation.

[2] = biological target: T2, Butyrylcholinesterase (BChE) (Equus caballus, UniProt P81908); assay: biochemical
T2 construct: purchased Sigma c-7512
Protocol: The following components were utilised:
Phosphate Buffer (0.1M, pH 7.4)
Made up to 500 ml with distilled H2 O, pH 7.4
1 ml of enzyme solution (i), was incubated with 2 ml PDS for 60 minutes at 0° C.
Components of the assay blank, controls and test solutions are provided below:
0.9 ml phosphate buffer (0.1M, pH 7.4)
0.85 ml phosphate buffer (0.1 M, pH 7.4)
0.05 ml Acetylthiocholine (5.2 mM)
as §4
Control was taken as 100%. Inhibitor was calculated as a percentage of control. A graph of Log of inhibitor conc. versus % control was plotted and IC50 values calculated by interpolation.

[3] = tested on: noradrenaline (NA) uptake; assay: Monoamine Uptake Inhibition Assay, noradrenaline (synaptosomal preparation); format: biochemical, rat (Sprague Dawley)
Protocol: as §1, §2, §3

[4] = not believed to be irreversible in nature; cited from earlier work
[5] = Table 1, form BASE, n = 5, read-out: IC50 5HT UPTAKE
[6] = Table 1, form SALT, n = 5, read-out: IC50 5HT UPTAKE
[7] = Table 1, form BASE, ±SEM, n = 5, read-out: IC50 AChE
[8] = Table 1, form SALT, ±SEM, n = 5, read-out: IC50 AChE
[9] = Table 1, form SALT, ±SEM, n = 5, read-out: IC50 BChE
[10] = Table 1, form BASE, n = 5, read-out: IC50 NA UPTAKE
[11] = Table 1, form SALT, n = 5, read-out: IC50 NA UPTAKE
[12] = Table 3, read-out: 5-HT UPTAKE INHIBITION
[13] = Table 3, read-out: NA UPTAKE INHIBITION

T2 sequence (P81908 whole entry): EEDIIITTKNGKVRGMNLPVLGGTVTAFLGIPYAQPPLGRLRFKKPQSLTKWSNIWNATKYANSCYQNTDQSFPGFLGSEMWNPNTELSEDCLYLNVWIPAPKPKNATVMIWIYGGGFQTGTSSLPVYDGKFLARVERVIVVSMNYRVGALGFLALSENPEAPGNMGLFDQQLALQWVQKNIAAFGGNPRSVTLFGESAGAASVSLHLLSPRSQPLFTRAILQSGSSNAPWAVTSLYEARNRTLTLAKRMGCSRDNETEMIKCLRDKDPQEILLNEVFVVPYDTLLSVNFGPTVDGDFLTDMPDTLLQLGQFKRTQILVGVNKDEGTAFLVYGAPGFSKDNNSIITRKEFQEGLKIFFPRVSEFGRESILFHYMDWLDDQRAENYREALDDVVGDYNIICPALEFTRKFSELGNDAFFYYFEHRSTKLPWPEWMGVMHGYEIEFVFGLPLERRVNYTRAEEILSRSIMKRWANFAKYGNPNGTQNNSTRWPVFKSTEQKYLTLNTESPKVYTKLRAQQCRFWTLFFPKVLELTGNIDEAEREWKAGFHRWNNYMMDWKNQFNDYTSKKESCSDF
T1 sequence (P37136 32-614): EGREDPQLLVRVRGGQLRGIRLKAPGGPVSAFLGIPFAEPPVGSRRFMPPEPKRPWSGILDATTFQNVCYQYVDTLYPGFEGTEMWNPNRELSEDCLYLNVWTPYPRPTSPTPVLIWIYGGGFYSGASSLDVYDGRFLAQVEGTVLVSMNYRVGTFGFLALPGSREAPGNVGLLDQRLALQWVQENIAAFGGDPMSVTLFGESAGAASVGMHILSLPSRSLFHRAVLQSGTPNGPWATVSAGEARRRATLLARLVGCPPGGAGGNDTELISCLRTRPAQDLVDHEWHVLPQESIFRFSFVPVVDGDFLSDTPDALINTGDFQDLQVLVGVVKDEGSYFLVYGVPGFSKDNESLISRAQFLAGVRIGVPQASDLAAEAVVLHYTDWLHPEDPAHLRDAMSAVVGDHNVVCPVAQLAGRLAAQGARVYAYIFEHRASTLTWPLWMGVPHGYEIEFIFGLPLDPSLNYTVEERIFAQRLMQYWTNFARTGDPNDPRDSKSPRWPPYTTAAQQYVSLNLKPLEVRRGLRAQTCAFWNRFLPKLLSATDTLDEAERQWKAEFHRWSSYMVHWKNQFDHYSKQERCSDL

Row | SMILES | IC50 (5-HT (serotonin) uptake; [5]) | IC50 (5-HT (serotonin) uptake; [6]) | IC50 [1, 7] | IC50 [1, 8] | IC50 [2, 9] | IC50 [3, 10] | IC50 [3, 11] | IC50 ([2]; Table 1, form BASE, ±SEM, n = 5, read-out: IC50 BChE) | 5-HT UPTAKE INHIBITION TACRINE RATIO (5-HT (serotonin) uptake) | IC50 (5-HT (serotonin) uptake; [12]) | AChE TACRINE RATIO [1] | IC50 ([1]; Table 2, read-out: AChE IC50) | BChE TACRINE RATIO [2] | IC50 ([2]; Table 2, read-out: BChE IC50) | NA UPTAKE INHIBITION TACRINE RATIO [3] | IC50 [3, 13] | side effect [4]
1 | COc1ccc2c(c1)CCCc1c-2nc2ccccc2c1N [Compound 1, 13-Amino-1,2 dihydro-5-methoxy[1H] benz [7] annuleno [5,4-b] quinoline] | 0.7 µM | 0.02 µM | 68.8 µM | 17.4 µM | 34.4 µM | 3.6 µM | 1.8 µM |  |  |  |  |  |  |  |  |  | 
2 | Nc1c2c(nc3ccccc13)-c1ccccc1CC2 [Compound 3, 7 Amino-5,6-dihydro-benz-[c]-acridine] | 4.6 µM | 2 µM | 37.4 µM | 7.8 µM | 3.8 µM | 12.1 µM | 13.2 µM |  |  |  |  |  |  |  |  |  | 
3 | COc1cccc2c1CCc1c-2nc2ccccc2c1N [Compound 4, 7-Amino-5,6-dihydro-4-methoxybenz-[c]-acridine] | 5.8 µM | 2.1 µM | 47.5 µM | 17.1 µM | 1.9 µM | 1.4 µM | 12.2 µM | 10.3 µM |  |  |  |  |  |  |  |  | 
4 | Nc1c2c(nc3ccccc13)-c1ccc(Cl)cc1CC2 [Compound 5, 7-Amino-5,6-dihydro-3-chlorobenz-[c]-acridine] | 14.3 µM | 5.2 µM | 144 µM | 17.9 µM | 7.1 µM | 4.1 µM | 6.1 µM |  |  |  |  |  |  |  |  |  | 
5 | Nc1c2c(nc3ccccc13)-c1ccccc1CCC2 [Compound 6, 8-Amino-6,7-dihydro-5H-benzo-[6, 7] cyclohepta [1,2-b] quinoline] | 4.7 µM | 1 µM | 329 µM | 17.5 µM | 4 µM |  | 1.9 µM |  |  |  |  |  |  |  |  |  | 
6 | Nc1c2c(nc3ccc(F)cc13)CCC2 [Compound 11, 9-Amino-7-fluoro-2,3-dihydro-1H-cyclopenta-[b] quinoline] |  |  |  |  |  |  |  |  | 2.054 | 3.7 µM | 0.650 | 0.12 µM | 0.033 | 0.75 µM | 0.558 | 12 µM | 
7 | Nc1c2c(nc3c(O)cccc13)CCC2 [Compound 12, 9-Amino-5-hydroxy-2,3-dihydro-1H-cyclopenta [b] quinoline] |  |  |  |  |  |  |  |  | 0.524 | 14.5 µM | 0.078 | 1 µM | 0.050 | 0.5 µM | 9.571 | 0.7 µM | 
8 | Nc1c2c(nc3c(F)cccc13)CCC2 [Compound 13, 9-Amino-5-fluoro-2,3-dihydro-1H-cyclopenta-[1,2-b] quinoline] |  |  |  |  |  |  |  |  | 0.181 | 42 µM | 0.269 | 0.29 µM | 0.093 | 0.27 µM | 9.571 | 0.7 µM | 
9 | Nc1c2c(nc3cccc(F)c13)CCC2 [Compound 14, 9-Amino-8-fluoro-2,3-dihydro-1H-cyclopenta-[b] quinoline] |  |  |  |  |  |  |  |  | 0.177 | 43 µM | 1.000 | 0.078 µM | 0.017 | 1.51 µM | 2.030 | 3.3 µM | 
10 | Nc1c2c(nc3cc(F)ccc13)CCC2 [Compound 15, 9-amino-6-fluoro-2,3-dihydro-1H-cyclopenta [b] quinoline] |  |  |  |  |  |  |  |  | 0.345 | 22 µM | 1.219 | 0.064 µM | 0.610 | 0.041 µM | 9.571 | 0.7 µM | 
11 | Nc1c2c(nc3cccc(Cl)c13)CCC2 [Compound 16, 9-Amino-8-chloro-2,3-dihydro-1H-cyclopenta[b]quinoline] |  |  |  |  |  |  |  |  | 0.195 | 39 µM | 0.557 | 0.14 µM | 0.047 | 0.53 µM | 3350.000 | 0.002 µM | 
12 | Nc1c2c(nc3ccc(Cl)cc13)CCC2 [Compound 19, 9-Amino-7-chloro-2,3-dihydro-1H-cyclopenta-[b] quinoline] |  |  |  |  |  |  |  |  | 1.086 | 7 µM | 0.060 | 1.3 µM | 0.019 | 1.32 µM | 2.481 | 2.7 µM | 
13 | Nc1c2c(nc3c(Cl)cccc13)CCC2 [Compound 22, 9-Amino-5-chloro-2,3-dihydro-1H-cyclopenta[b] quinoline] |  |  |  |  |  |  |  |  | 0.073 | 104 µM | 0.022 | 3.5 µM | 0.002 | 14.5 µM | 2.161 | 3.1 µM | 
14 | Nc1c2c(nc3ccccc13)CCC2 [Compound 29, 9-Amino-2,3-dihydro-[1H ]-cyclopenta-[b]-quinoline] |  |  |  |  |  |  |  |  | 0.362 | 21 µM | 1.393 | 0.056 µM | 0.481 |  | 11.167 | 0.6 µM | 
15 | Nc1c2c(nc3ccccc13)CCCC2 [TACRINE, reference compound] |  |  |  |  |  |  |  |  |  |  |  |  |  |  |  | 6.7 µM | liver damage

Reference: US6130228A, “Polycyclic compounds” (priority 1995, dated 2000)
